According to US5756763A, “Pyrrolidine derivatives” (Zaidan Hojin Biseibutsu Kagaku Kenkyukai, priority 1993, dated 1998):

Target: T1, prolyl endopeptidase (Sus scrofa, UniProt P23687)
T1 construct: swine kidney-derived prolyl endopeptidase; from tissue; host or cells: swine kidney
Experiment: Enzyme inhibitory action on swine kidney-derived prolyl endopeptidase (Z-Gly-Pro-β-naphthylamide substrate)
Format: biochemical
Details: for IC50: swine kidney prolyl endopeptidase, 0.1 mM substrate, 37° C., 30 minutes, pH 7.5; for prolyl endopeptidase inhibition activity (in words): in vitro, qualitative statement
Method: Using 0.1 mM of benzyolxycarbonylglycylproline-β-naphthylamide as substrate and swine kidney-derived prolyl endopeptidase as enzyme, the enzyme was acted on the substrate at 37° C. for 30 minutes in 0.025 M Tris(hydroxymethyl)methane amine-hydrochloric acid (pH 7.5) solution. Fast Garnet was added to form a color and absorbance was measured at 525 nm. The inhibitory activity is expressed in terms of concentration required for 50% inhibition (IC50).

T1 sequence (P23687 whole entry): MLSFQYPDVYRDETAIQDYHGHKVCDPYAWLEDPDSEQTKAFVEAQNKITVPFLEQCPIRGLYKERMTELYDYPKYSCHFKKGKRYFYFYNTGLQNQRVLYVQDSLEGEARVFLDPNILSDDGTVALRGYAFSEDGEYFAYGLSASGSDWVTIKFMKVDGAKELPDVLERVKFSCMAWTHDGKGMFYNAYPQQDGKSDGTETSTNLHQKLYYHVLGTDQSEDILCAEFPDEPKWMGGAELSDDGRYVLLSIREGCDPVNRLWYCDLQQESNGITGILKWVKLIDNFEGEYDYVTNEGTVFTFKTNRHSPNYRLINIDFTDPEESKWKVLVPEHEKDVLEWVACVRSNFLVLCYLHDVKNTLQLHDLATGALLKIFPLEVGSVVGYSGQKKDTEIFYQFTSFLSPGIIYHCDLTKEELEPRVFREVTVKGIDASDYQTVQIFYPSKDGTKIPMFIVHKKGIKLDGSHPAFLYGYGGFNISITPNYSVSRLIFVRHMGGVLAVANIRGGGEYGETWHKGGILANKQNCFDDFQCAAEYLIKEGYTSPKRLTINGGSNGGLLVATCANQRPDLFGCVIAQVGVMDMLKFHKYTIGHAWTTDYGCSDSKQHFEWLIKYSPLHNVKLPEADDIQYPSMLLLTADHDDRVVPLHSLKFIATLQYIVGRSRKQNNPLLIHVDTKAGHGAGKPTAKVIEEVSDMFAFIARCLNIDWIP

Compound | IC50 | prolyl endopeptidase inhibition activity (in words)
O=C(NC1CCCCC1)C(=O)C1CCCN1C(=O)C1CCCN1C(=O)CSc1ccncc1 (stereo not shown) [Example 55, N-Cyclohexyl-2-oxo-2-[2-(1-(N-(4-pyridylthioacetyl)prolyl)pyrrolidinyl)]acetamide] | 1.69 nM | –
O=C(NC1CCCCCC1)C(=O)C1CCCN1C(=O)C(Cc1ccccc1)NC(=O)c1cccc(Oc2ccccc2)c1 (stereo not shown) [Example 41, N-Cycloheptyl-2-oxo-2-[2-(1-(N-(3-phenoxybenzoyl)-phenylalanyl)pyrrolidinyl)]acetamide] | 1.38 nM | potent inhibition activity on almost the same level
O=C(C=Cc1ccco1)NC(Cc1ccccc1)C(=O)N1CCCC1C(=O)C(=O)NC1CCCCC1 (stereo not shown) [Example 31, N-Cyclohexyl-2-oxo-2-[2-(1-(N-(3-(2-furyl)acryloyl)-phenylalanyl)pyrrolidinyl)]acetamide] | 6.31 nM | –
CC(C)C(NC(=O)OCc1ccccc1)C(=O)N1CCCC1C(=O)C(=O)NC1CCCCC1 (stereo not shown) [Example 4, N-cyclohexyl-2-oxo-2-[2-(1-(N-benzyloxycarbonylvalyl)pyrrolidinyl)]acetamide] | 1.09 nM | –
O=C(NC1CCCCC1)C(=O)C1CCCN1C(=O)C(Cc1ccccc1)NC(=O)c1ccncc1 (stereo not shown) [Example 49, N-Cyclohexyl-2-oxo-2-[2-(1-(N-(isonicotinonyl)-phenylalanyl)pyrrolidinyl)]acetamide] | 6.5 nM | –
O=C(NC1CCCCC1)C(=O)C1CCCN1C(=O)c1ccccn1 (stereo not shown) [Example 74, N-Cyclohexyl-2-oxo-2-[2-(1-(2-pyridylcarbonyl)pyrrolidinyl)]acetamide] | 97.1 nM | –
O=C(NC1CCCCC1)C(=O)C1CCCN1C(=O)C(CC1CCCCC1)NC(=O)c1ccc2ccccc2n1 (stereo not drawn) [Example 124, N-Cyclohexyl-2-oxo-2-[2-(1-(N-(2-quinolylcarbonyl)-β-cyclohexylalanyl)pyrrolidinyl)]acetamide] | 3.75 nM | –
O=C(NC1CCCCC1)C(=O)C1CCCN1C(=O)C(Cc1ccccc1)NC(=O)c1cccs1 (stereo not shown) [Example 18, N-Cyclohexyl-2-oxo-2-[2-(1-(N-(2-thenoyl)phenylalanyl)pyrrolidinyl)]acetamide] | 2.28 nM | –
O=C(NC1CCCCC1)C(=O)C1CCCN1C(=O)c1cccc(Oc2ccccc2)c1 (stereo not shown) [Example 76, N-Cyclohexyl-2-oxo-2-[2-(1-(3-phenoxybenzoyl)pyrrolidinyl)]acetamide] | 13.8 nM | –
O=C(NC(Cc1ccccc1)C(=O)N1CCCC1C(=O)C(=O)NC1CCCCC1)OCc1ccccc1 (stereo not shown) [Example 45, N-Cyclohexyl-2-oxo-2-[2-(1-(N-benzyloxycarbonylphenylalanyl)pyrrolidinyl)]acetamide] | 2.37 nM | –
O=C(CSc1ccncc1)NC(Cc1ccccc1)C(=O)N1CCCC1C(=O)C(=O)NC1CCCCC1 (stereo not shown) [Example 51, N-Cyclohexyl-2-oxo-2-[2-(1-(N-(4-pyridylthioacetyl)-phenylalanyl)pyrrolidinyl)]acetamide] | 2.68 nM | –
O=C(NC1CCCCC1)C(=O)C1CCCN1C(=O)C=Cc1ccc(Cl)cc1 (stereo not shown) [Example 70, N-Cyclohexyl-2-oxo-2-[2-(1-(3-(4-chlorophenyl)acryloyl)pyrrolidinyl)]acetamide] | 111 nM | –
O=C(NC1CCCCC1)C(=O)C1CCCN1C(=O)CN(Cc1ccccc1)C(=O)c1ccncc1 (stereo not shown) [Example 60, N-Cyclohexyl-2-oxo-2-[2-(1-(N-isonicotinonyl-N-benzylglycyl)pyrrolidinyl)]acetamide] | 8.81 nM | –
O=C(NC1CCCCC1)C(=O)C1CCCN1C(=O)C(Cc1ccccc1)NC(=O)c1ccc2ccccc2n1 (stereo not shown) [Example 115, N-Cyclohexyl-2-oxo-2-[2-(1-(N-(2-quinolylcarbonyl)phenylalanyl)pyrrolidinyl)]acetamide] | 2.09 nM | –
O=C(NC1CCCCC1)C(=O)C1CCCN1C(=O)C(Cc1ccccc1)NC(=O)c1ccccc1 (stereo not shown) [Example 43, N-Cyclohexyl-2-oxo-2-[2-(1-(N-benzoylphenylalanyl)pyrrolidinyl)]acetamide] | 1.89 nM | –
O=C(NC1CCCCC1)C(=O)C1CCCN1C(=O)C(Cc1ccccc1)NC(=O)c1cccc(Oc2ccccc2)c1 (stereo not shown) [Example 28, N-Cyclohexyl-2-oxo-2-[2-(1-(N-(3-phenoxybenzoyl)phenylalanyl)pyrrolidinyl)]acetamide] | 1.14 nM | potent inhibition activity on almost the same level
O=C(NC1CCCCCCC1)C(=O)C1CCCN1C(=O)C(Cc1ccccc1)NC(=O)c1cccc(Oc2ccccc2)c1 (stereo not shown) [Example 113, N-Cyclooctyl-2-oxo-2-[2-(1-(N-(3-phenoxybenzoyl)phenylalanyl)pyrrolidinyl)]acetamide] | 1.59 nM | potent inhibition activity on almost the same level
CC(C)C(NC(=O)c1ccc2ccccc2n1)C(=O)N1CCCC1C(=O)C(=O)NC1CCCCC1 (stereo not shown) [Example 9, N-Cyclohexyl-2-oxo-2-[2-(1-(N-(2-quinolinecarbonyl)valyl)pyrrolidinyl)]acetamide] | 1.34 nM | –
O=C(CCC1CCCCC1)NC(Cc1ccccc1)C(=O)N1CCCC1C(=O)C(=O)NC1CCCCC1 (stereo not shown) [Example 33, N-Cyclohexyl-2-oxo-2-[2-(1-(N-(3-cyclohexylpropionyl)-phenylalanyl)pyrrolidinyl)]acetamide] | 0.981 nM | –

Compound | IC50 | prolyl endopeptidase inhibition activity (in words)
O=C(NC1CCCCC1)C(=O)C1CCCN1C(=O)C(Cc1ccccc1)NC(=O)c1ccc2ccccc2c1 (stereo not shown) [Example 22, N-Cyclohexyl-2-oxo-2-[2-(1-(N-(2-naphthoyl)phenylalanyl)pyrrolidinyl)]acetamide] | 3.23 nM | –
CC(C)C(NC(=O)c1cccc(Oc2ccccc2)c1)C(=O)N1CCCC1C(=O)C(=O)NC1CCCCC1 (stereo not shown) [Example 7, N-cyclohexyl-2-oxo-2-[2-(1-(N-(3-phenoxybenzoyl)valyl)pyrrolidinyl)]acetamide] | 0.962 nM | –
O=C(NC1CCCCC1)C(=O)C1CCCN1C(=O)C=Cc1ccccc1 (stereo not shown) [Example 68, N-Cyclohexyl-2-oxo-2-[2-(1-cinnamoylpyrrolidinyl)]acetamide] | 48 nM | –
O=C(NC1CCCCC1)C(=O)C1CCCN1C(=O)c1ccc(Cn2ccnc2)cc1 (stereo not shown) [Example 88] | 132 nM | –
O=C(NC1CC1)C(=O)C1CCCN1C(=O)C(Cc1ccccc1)NC(=O)c1cccc(Oc2ccccc2)c1 (stereo not shown) [Example 108, N-Cyclopropyl-2-oxo-2-[2-(1-(N-(3-phenoxybenzoyl)phenylalanyl)pyrrolidinyl)]acetamide] | 1.33 nM | potent inhibition activity on almost the same level
O=C(CSc1ccccc1)NC(Cc1ccccc1)C(=O)N1CCCC1C(=O)C(=O)NC1CCCCC1 (stereo not shown) [Example 47, N-Cyclohexyl-2-oxo-2-[2-(1-(N-(phenylthioacetyl)-phenylalanyl)pyrrolidinyl)]acetamide] | 1.53 nM | –
O=C(NC1CCCCC1)C(=O)C1CCCN1C(=O)C(Cc1ccccc1)NC(=O)c1cccnc1 (stereo not shown) [Example 53, N-Cyclohexyl-2-oxo-2-[2-(1-(N-(nicotinonyl)phenylalanyl)pyrrolidinyl)]acetamide] | 4.2 nM | –
O=C(NC1CCCCC1)C(=O)C1CCCN1C(=O)c1ccc(CN2CCCCC2)cc1 (stereo not shown) [Example 86, N-Cyclohexyl-2-oxo-2-[2-(1-(4-piperidinomethylbenzoyl)pyrrolidinyl)]acetamide] | 82.2 nM | –
O=C(NC1CCCCCC1)C(=O)C1CCCN1C(=O)c1ccc2ccccc2c1 (stereo not shown) [Example 78, N-Cycloheptyl-2-oxo-2-[2-(1-(2-naphthoyl)pyrrolidinyl)]acetamide] | 23.4 nM | –
O=C(NCc1nc2ccccc2[nH]1)C(=O)C1CCCN1C(=O)c1ccc(Cl)cc1 (stereo not shown) [Example 93, N-(2-Benzimidazolylmethyl)-2-oxo-2-[2-(1-(4-chlorobenzoyl)pyrrolidinyl)]acetamide] | 134 nM | –
O=C(COc1ccccc1)NC(Cc1ccccc1)C(=O)N1CCCC1C(=O)C(=O)NC1CCCCC1 (stereo not shown) [Example 20, N-Cyclohexyl-2-oxo-2-[2-(1-(N-phenoxyacetylphenylalanyl)pyrrolidinyl)]acetamide] | 1.58 nM | –
O=C(NC1CCCCC1)C(=O)C1CCCN1C(=O)c1ccc2ccccc2n1 (stereo not shown) [Example 66, N-Cyclohexyl-2-oxo-2-[2-(1-(2-quinolylcarbonyl)pyrrolidinyl)]acetamide] | 26.4 nM | –
O=C(NC1CCCC1)C(=O)C1CCCN1C(=O)C(Cc1ccccc1)NC(=O)c1cccc(Oc2ccccc2)c1 (stereo not shown) [Example 13, N-Cyclopentyl-2-oxo-2-[2-(1-(N-(3-phenoxybenzoyl)phenylalanyl)pyrrolidinyl)]acetamide] | 1.48 nM | potent inhibition activity on almost the same level
O=C(NC1CCCCC1)C(=O)C1CCCN1C(=O)C=Cc1cccnc1 (stereo not shown) [Example 72, N-Cyclohexyl-2-oxo-2-[2-(1-(3-(3-pyridyl)acryloyl)pyrrolidinyl)]acetamide] | 239 nM | –
CC(C)(C)OC(=O)NC(Cc1ccccc1)C(=O)N1CCCC1C(=O)C(=O)NC1CCCCC1 (stereo not shown) [Example 15, N-Cyclohexyl-2-oxo-2-[2-(1-(N-t-butoxycarbonylphenylalanyl)pyrrolidinyl)]acetamide] | 3.18 nM | –
O=C(NCCc1ccccn1)C(=O)C1CCCN1C(=O)c1ccc(Cl)cc1 (stereo not shown) [Example 97, N-(2-(2-Pyridyl)ethyl)-2-oxo-2-[2-(1-(4-chlorobenzoyl)pyrrolidinyl)]acetamide] | 90.7 nM | –
CC(=O)NC(Cc1ccccc1)C(=O)N1CCCC1C(=O)C(=O)NC1CCCCC1 (stereo not shown) [Example 118, N-Cyclohexyl-2-oxo-2-[2-(1-(N-acetylphenylalanyl)pyrrolidinyl)]acetamide] | 2.03 nM | –
O=C(NCCN1CCOCC1)C(=O)C1CCCN1C(=O)c1ccc(Cl)cc1 (stereo not shown) [Example 95, N-(2-Morpholinoethyl)-2-oxo-2-[2-(1-(4-chlorobenzoyl)-pyrrolidinyl)]acetamide] | 168 nM | –
O=C[C@@H]1CCCN1C(=O)[C@H](Cc1ccccc1)NC(=O)c1cccc(Oc2ccccc2)c1 [Reference Example 4, N-(N-(3-Phenoxybenzoyl)-L-phenylalanyl)-L-prolinal, reference compound] | 249 nM | –
